Earlier results in patent US7064136B2, “Compounds” (AstraZeneca AB, priority 2000, dated 2006).
Read-outs that look alike come from different tables or passages of the source. Non-standard residues stand in square brackets, D forms with d. Residues, ends and D or L forms follow the SMILES beside them. *: point of attachment. Cyclohexanecarbonyl = O=C(C1CCCCC1)*

Legend:
[1] = test system: Neurokinin receptor; conditions: Light-dark box
[2] = test system: Neurokinin receptor; conditions: Marmoset human intruder; Walsh et al., Psychopharmacology 121:186-191, 1995
[3] = test system: Neurokinin receptor; conditions: Elevated plus-maze
[4] = test system: Neurokinin receptor; conditions: Forced swim test (depression model); anti-depressant (only at 30 mg/kb bid); Vassout et al Neuropeptides 26/S1:38, 1994
[5] = test system: Neurokinin receptor
[6] = Walsh et al., Psychopharmacology 121:186-191, 1995
[7] = Stratton et al., Eur. J. Pharmacol. 250: R11-12, 1993
[8] = Teixeira et al., Eur J Pharmacol 5;311(1):7-14, 1996

SMILES	Outcome [1, 6]	Outcome [2]	Outcome [1, 7]	Outcome [3, 8]	further results
COC1(C[S@@+]([O-])c2ccccc2)CCN(CCc2c[nH]c3ccc(F)cc23)CC1 [GR159897]	anxiolytic	anxiolytic	–	–	–
C[C@H](NC(=O)CNC(=O)C1CCCCC1)C(=O)N[C@H](Cc1c[nH]c2ccccc12)C(=O)N[C@@H](Cc1ccccc1)C(=O)N(C)C [GR100679] (Cyclohexanecarbonyl-GA[dW]F-NMe2)	–	–	anxiolytic	–	–
CC(=O)NC1(c2ccccc2)CCN(CC[C@H](CN(C)C(=O)c2ccccc2)c2ccc(Cl)c(Cl)c2)CC1 [SR48968]	anxiolytic	anxiolytic	anxiolytic	anxiolytic	–
Cc1cc(C)cc(C(=O)N2CC[C@H](NCc3ccnc4ccccc34)C[C@H]2Cc2ccccc2)c1 [CGP 49823]	–	–	–	–	Outcome ([3]; Vassout et al Neuropeptides 26/S1:38, 1994): inactive anti-; Outcome [4]: depressant; Outcome ([5]; Social interaction test, Vassout et al Neuropeptides 26/S1:38, 1994): anxiolytic; Outcome ([5]; Social interaction, File Pharm Bio B 58(3):747-752, 1997): anxiolytic
CN(Cc1ccccc1)C(=O)[C@H](Cc1ccc2ccccc2c1)NC(=O)[C@@H]1C[C@@H](O)CN1C(=O)c1cn(C)c2ccccc12 [FK888]	–	–	–	anxiolytic	–
